Measurements from ChEMBL document CHEMBL3856204, “Chiral 6-aryl-furo[2,3-d]pyrimidin-4-amines as EGFR inhibitors” (Eur J Med Chem, 2016).

Assays:
[1] = target: Aurora kinase B (Homo sapiens) (UniProt Q96GD4); experiment: Inhibition of His tagged recombinant full length human Aurora B expressed in baculovirus at 500 nM by Z'-LYTE assay
[2] = target: Fibroblast growth factor receptor 1 (Homo sapiens) (UniProt P11362); experiment: Inhibition of His tagged recombinant human FGFR1 cytoplasmic domain (308 to 731 residues) expressed in baculovirus at 500 nM by Z'-LYTE assay
Sequence of Fibroblast growth factor receptor 1 (Homo sapiens) (P11362 22-822 limits assumed): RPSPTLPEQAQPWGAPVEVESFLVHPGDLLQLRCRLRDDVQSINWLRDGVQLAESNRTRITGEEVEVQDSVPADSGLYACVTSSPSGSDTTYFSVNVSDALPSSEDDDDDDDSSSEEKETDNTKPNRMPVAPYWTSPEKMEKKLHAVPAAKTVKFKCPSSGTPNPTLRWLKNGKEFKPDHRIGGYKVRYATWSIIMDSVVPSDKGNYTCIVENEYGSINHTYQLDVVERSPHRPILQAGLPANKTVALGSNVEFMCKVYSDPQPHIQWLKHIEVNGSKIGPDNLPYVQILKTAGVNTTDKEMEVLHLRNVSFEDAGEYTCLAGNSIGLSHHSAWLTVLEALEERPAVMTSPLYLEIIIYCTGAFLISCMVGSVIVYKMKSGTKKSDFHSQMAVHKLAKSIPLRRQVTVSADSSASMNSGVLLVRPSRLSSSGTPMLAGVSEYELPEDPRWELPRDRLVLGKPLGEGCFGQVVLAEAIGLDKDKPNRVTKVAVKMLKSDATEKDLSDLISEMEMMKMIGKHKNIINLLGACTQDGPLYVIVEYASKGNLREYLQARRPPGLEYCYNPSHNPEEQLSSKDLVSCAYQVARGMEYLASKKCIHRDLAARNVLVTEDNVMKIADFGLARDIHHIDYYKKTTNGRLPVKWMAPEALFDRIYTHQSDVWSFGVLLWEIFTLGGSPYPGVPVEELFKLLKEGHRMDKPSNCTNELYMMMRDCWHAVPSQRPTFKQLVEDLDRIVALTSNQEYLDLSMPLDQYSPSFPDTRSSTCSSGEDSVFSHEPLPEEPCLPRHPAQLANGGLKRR

[3] = target: Tyrosine-protein kinase Yes (Homo sapiens) (UniProt P07947); experiment: Inhibition of GST tagged recombinant full length human YES1 expressed in baculovirus at 500 nM by Z'-LYTE assay
Sequence of Tyrosine-protein kinase Yes (Homo sapiens) (P07947 2-543 limits assumed): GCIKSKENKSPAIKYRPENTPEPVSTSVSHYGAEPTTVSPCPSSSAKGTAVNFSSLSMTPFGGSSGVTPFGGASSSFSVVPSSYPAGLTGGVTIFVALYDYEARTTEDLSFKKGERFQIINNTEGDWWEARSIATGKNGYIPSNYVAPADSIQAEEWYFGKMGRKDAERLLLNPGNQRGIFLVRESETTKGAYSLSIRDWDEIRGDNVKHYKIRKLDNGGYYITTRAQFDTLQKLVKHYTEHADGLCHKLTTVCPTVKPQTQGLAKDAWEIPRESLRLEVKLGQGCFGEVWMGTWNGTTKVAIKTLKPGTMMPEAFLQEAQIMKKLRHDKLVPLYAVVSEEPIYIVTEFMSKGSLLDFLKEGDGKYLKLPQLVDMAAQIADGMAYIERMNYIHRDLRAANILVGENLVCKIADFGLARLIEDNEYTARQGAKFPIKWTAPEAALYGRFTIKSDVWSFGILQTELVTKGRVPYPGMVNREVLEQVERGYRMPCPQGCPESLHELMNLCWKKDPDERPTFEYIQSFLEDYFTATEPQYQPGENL

[4] = target: Tyrosine-protein kinase HCK (Homo sapiens) (UniProt P08631); experiment: Inhibition of recombinant full length human N-terminal GST-tagged HCK expressed in baculovirus at 500 nM by Z'-LYTE assay
Sequence of Tyrosine-protein kinase HCK (Homo sapiens) (P08631 2-526 limits assumed): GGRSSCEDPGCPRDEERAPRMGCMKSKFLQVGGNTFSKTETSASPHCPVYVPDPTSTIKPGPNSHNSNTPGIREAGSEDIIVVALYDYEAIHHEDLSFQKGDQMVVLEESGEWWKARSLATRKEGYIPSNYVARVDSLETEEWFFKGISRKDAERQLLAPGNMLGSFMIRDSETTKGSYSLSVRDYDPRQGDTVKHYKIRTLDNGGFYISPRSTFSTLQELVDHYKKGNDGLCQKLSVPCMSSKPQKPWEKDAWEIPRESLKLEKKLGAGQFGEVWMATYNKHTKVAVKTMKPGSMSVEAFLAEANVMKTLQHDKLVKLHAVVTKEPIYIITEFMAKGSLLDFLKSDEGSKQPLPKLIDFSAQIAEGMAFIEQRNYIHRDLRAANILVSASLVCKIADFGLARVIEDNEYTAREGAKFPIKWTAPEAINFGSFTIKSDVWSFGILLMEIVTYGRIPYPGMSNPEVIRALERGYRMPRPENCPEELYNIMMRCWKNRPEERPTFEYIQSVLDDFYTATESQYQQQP

[5] = target: Glycogen synthase kinase-3 beta (Homo sapiens) (UniProt P49841); experiment: Inhibition of His tagged recombinant full length human GSK3B expressed in baculovirus at 500 nM by Z'-LYTE assay
Sequence of Glycogen synthase kinase-3 beta (Homo sapiens) (P49841 whole entry, looked up, the tested form may be a part): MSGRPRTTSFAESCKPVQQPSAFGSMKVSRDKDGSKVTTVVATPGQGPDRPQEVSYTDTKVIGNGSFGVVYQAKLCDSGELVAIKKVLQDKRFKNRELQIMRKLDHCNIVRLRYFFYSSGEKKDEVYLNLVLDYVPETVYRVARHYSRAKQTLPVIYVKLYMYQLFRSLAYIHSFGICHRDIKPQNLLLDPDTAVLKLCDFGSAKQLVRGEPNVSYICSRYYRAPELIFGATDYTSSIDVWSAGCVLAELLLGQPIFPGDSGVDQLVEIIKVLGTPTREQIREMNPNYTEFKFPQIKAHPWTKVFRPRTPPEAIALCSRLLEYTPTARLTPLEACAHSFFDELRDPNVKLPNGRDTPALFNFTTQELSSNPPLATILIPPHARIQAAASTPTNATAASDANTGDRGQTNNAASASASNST

[6] = target: T1, Ephrin type-B receptor 1 (Homo sapiens) (UniProt P54762); experiment: Inhibition of GST tagged recombinant human EPHB1 cytoplasmic domain (613 to 881 residues) expressed in baculovirus at 500 nM by Z'-LYTE assay
T1 sequence (whole entry): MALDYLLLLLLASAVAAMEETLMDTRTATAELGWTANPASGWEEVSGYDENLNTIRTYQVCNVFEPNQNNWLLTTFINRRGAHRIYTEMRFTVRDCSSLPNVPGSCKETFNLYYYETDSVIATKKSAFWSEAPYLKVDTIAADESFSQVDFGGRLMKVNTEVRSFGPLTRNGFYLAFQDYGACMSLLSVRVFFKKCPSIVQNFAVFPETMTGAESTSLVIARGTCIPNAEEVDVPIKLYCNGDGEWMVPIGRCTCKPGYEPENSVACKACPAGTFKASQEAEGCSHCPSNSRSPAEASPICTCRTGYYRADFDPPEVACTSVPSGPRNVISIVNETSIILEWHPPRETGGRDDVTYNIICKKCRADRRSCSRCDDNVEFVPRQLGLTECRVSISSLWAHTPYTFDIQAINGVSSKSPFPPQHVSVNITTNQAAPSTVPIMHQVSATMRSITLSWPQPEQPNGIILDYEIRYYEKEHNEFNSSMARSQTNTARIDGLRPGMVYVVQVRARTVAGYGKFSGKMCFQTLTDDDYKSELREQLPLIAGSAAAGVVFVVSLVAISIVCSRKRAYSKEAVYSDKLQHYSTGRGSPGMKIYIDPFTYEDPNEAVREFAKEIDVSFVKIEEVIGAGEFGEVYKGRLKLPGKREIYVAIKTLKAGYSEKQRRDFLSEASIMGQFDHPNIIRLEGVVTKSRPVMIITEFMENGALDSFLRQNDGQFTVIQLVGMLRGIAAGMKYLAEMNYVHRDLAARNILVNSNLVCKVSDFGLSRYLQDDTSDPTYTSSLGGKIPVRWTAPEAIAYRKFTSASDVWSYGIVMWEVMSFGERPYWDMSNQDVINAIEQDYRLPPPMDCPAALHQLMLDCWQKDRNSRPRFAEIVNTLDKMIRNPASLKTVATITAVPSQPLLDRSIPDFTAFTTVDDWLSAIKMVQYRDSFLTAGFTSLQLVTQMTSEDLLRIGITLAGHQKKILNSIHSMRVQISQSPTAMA

[7] = target: Vascular endothelial growth factor receptor 2 (Homo sapiens) (UniProt P35968); experiment: Inhibition of His tagged recombinant human KDR (789 to 1356 residues) expressed in baculovirus at 500 nM by Z'-LYTE assay
Sequence of Vascular endothelial growth factor receptor 2 (Homo sapiens) (P35968 whole entry, the tested form may be a part): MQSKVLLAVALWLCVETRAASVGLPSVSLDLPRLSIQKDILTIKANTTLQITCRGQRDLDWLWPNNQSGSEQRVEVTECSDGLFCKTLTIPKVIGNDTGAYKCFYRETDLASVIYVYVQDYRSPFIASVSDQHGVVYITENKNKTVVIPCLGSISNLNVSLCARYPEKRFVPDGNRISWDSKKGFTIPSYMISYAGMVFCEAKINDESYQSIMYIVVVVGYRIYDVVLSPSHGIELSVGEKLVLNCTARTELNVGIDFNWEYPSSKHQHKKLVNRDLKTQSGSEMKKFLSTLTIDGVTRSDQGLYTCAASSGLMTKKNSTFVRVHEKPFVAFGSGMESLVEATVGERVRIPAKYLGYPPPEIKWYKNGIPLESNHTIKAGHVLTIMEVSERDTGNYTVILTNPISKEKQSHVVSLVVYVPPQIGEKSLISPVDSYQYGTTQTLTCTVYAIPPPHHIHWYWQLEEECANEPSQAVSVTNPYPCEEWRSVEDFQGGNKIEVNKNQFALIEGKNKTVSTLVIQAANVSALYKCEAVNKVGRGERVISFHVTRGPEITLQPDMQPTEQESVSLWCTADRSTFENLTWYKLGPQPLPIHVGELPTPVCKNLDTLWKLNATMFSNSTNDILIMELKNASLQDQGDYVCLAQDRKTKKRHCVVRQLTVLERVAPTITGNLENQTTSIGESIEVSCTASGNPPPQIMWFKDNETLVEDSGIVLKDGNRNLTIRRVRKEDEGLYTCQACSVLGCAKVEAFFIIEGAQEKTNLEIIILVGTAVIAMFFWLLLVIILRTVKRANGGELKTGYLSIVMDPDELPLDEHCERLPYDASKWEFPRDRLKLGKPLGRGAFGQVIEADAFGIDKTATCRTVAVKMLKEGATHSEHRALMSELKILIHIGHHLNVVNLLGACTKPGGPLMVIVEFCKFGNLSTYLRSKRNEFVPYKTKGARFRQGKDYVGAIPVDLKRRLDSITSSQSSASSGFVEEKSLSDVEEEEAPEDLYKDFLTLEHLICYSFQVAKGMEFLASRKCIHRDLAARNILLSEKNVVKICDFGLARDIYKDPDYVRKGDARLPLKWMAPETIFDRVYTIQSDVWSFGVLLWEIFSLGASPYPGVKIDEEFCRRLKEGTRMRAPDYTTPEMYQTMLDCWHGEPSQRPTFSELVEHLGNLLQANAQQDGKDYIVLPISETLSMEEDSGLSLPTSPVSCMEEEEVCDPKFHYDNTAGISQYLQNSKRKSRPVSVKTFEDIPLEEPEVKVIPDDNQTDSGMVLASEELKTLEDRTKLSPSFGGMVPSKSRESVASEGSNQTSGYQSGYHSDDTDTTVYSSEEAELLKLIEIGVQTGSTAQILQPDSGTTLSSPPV

[8] = target: Tyrosine-protein kinase SYK (Homo sapiens) (UniProt P43405); experiment: Inhibition of recombinant full length human N-terminal GST-tagged SYK expressed in baculovirus at 500 nM by Z'-LYTE assay
[9] = target: Tyrosine-protein kinase Fer (Homo sapiens) (UniProt P16591); experiment: Inhibition of recombinant human GST-tagged FER (541 to 822 residues) expressed in baculovirus at 500 nM by Z'-LYTE assay- tagged
Sequence of Tyrosine-protein kinase Fer (Homo sapiens) (P16591 whole entry, looked up, the tested form may be a part): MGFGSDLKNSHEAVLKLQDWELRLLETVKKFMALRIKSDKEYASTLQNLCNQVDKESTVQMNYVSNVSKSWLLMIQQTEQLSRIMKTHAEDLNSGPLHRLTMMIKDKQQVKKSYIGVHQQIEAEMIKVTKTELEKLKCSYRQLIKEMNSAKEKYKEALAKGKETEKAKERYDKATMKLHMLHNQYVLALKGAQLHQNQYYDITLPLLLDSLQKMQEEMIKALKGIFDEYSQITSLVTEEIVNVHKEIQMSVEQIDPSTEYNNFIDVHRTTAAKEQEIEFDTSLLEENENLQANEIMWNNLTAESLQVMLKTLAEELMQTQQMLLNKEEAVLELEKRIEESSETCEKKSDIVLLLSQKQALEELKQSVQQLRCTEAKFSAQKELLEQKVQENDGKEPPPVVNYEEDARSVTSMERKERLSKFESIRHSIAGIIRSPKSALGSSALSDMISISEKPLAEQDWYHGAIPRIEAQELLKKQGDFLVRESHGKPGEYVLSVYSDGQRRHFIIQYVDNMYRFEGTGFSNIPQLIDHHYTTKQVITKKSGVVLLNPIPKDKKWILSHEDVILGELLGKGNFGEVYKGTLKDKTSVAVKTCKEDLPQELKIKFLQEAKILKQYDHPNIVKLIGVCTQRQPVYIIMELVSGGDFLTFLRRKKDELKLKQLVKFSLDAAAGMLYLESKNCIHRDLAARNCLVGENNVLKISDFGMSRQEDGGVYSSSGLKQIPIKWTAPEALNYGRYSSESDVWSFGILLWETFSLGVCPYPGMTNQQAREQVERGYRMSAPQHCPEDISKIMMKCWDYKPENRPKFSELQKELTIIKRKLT

[10] = target: cAMP-dependent protein kinase catalytic subunit alpha (Homo sapiens) (UniProt P17612); experiment: Inhibition of His tagged recombinant human PRKACA catalytic domain (1 to 351 residues) expressed in Escherichia coli at 500 nM by Z'-LYTE assay

Sequence of Aurora kinase B (Homo sapiens) (Q96GD4 whole entry, the tested form may be a part): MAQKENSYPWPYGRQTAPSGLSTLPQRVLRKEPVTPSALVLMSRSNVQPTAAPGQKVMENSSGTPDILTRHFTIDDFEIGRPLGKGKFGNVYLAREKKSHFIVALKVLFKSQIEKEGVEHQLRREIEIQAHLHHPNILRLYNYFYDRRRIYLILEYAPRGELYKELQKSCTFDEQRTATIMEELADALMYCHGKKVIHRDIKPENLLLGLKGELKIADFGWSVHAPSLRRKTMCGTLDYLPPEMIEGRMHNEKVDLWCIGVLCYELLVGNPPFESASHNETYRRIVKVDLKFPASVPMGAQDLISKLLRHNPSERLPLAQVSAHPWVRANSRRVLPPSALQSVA

Row | inhibition [1] [%] | inhibition [2] [%] | inhibition [3] [%] | inhibition [4] [%] | inhibition [5] [%] | inhibition [6] [%] | inhibition [7] [%] | inhibition [8] [%] | inhibition [9] [%] | inhibition [10] [%] | Structure (SMILES)
1 | 20 to 44 | -4 | 29 | 18 | -8 | 11 | 70 | 14 | -1 | -10 | C#Cc1cccc(Nc2ncnc3cc(OCCOC)c(OCCOC)cc23)c1
2 | 7 to 34 | 6 | 51 | 21 | 4 | 17 | 37 | 8 | 6 | 8 | C[C@@H](Nc1ncnc2oc(-c3ccc(NCCN(C)C)cc3)cc12)c1ccccc1
3 | 13 to 31 | 6 | 54 | 20 | 4 | 17 | 44 | 11 | 4 | 5 | C[C@@H](Nc1ncnc2oc(-c3ccc(NCCN4CCCCC4)cc3)cc12)c1ccccc1
